Tests used:
[1] = Antiplatelet activity in human platelet rich plasma assessed as inhibition of ADP-induced platelet aggregation relative to AZD-6140; type: functional
[2] = Metabolic stability in human microsomes; type: ADME, Microsome
P2Y purinoceptor 12 = P2Y purinoceptor 12 (Homo sapiens, UniProt Q9H244); assay: Inhibition of human P2Y12 receptor expressed in CHO cells
[3] = Metabolic stability in rat microsomes; type: ADME, Microsome
[4] = Antiplatelet activity in human platelet rich plasma assessed as inhibition of ADP-induced platelet aggregation; type: functional

P2Y purinoceptor 12, sequence (Q9H244 whole entry): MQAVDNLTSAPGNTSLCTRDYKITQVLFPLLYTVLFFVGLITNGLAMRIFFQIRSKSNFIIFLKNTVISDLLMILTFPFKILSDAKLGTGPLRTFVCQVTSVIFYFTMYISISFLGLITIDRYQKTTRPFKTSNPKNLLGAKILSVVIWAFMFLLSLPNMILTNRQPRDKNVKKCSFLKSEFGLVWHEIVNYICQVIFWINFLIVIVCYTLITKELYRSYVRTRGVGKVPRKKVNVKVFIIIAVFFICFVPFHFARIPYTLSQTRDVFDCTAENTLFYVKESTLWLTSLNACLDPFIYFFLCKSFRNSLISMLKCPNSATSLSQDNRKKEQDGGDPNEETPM

Structure (SMILES)	fold change (FC) [1]	Stability [2]	Ki (P2Y purinoceptor 12)	Stability [3]	IC50 [4]
CCCCCOC(=O)N1CCN(C(=O)[C@H](CCC(=O)O)NC(=O)c2cc(N3CCN(C(=O)N4CCCC4)CC3)cc(-c3ccccc3)n2)CC1	14	Stable	10 nM	Stable	6100 nM
CCCCCOC(=O)N1CCN(C(=O)[C@H](CCC(=O)O)NC(=O)c2cc(N3CCCC(N4CCCC4)C3)cc(-c3ccccc3)n2)CC1 (stereo not given in full)	3.3	Stable	11 nM	Stable	3300 nM
CCCCCOC(=O)N1CCN(C(=O)[C@H](CCC(=O)O)NC(=O)c2cc(N3CC[C@H](C(=O)N(CC)CC)C3)cc(-c3ccccc3)n2)CC1	4.6	Stable	1.7 nM	Stable	4800 nM
CCCOC(=O)N1CCN(C(=O)[C@H](CCC(=O)O)NC(=O)c2cc(N3CCC(C(=O)N(CC)CC)CC3)cc(-c3ccccc3)n2)CC1	2.3	Stable	12 nM	Stable	2000 nM
CCCCCOC(=O)N1CCN(C(=O)[C@H](CCC(=O)O)NC(=O)c2cc(N3CCC(CN(C)C)CC3)cc(-c3ccccc3)n2)CC1	1.3	Stable	1.9 nM	Stable	1000 nM
CCCCCOC(=O)N1CCN(C(=O)[C@H](CCC(=O)O)NC(=O)c2cc(N3CCC(CN(CC)CC)CC3)cc(-c3ccccc3)n2)CC1	2.7	Stable	4 nM	Stable	2200 nM
CCCCCOC(=O)N1CCN(C(=O)[C@H](CCC(=O)O)NC(=O)c2cc(N3CCC(C(=O)N(C)C)CC3)cc(-c3ccccc3)n2)CC1	0.72	Stable	0.98 nM	Stable	600 nM
CCCCCOC(=O)N1CCN(C(=O)[C@H](CCC(=O)O)NC(=O)c2cc(N3CC[C@H](C(=O)N(C)C)C3)cc(-c3ccccc3)n2)CC1	4.1	Stable	26 nM	Stable	3000 nM
CCCCCOC(=O)N1CCN(C(=O)[C@H](CCC(=O)O)NC(=O)c2cc(N3CCN(CCO)CC3)cc(-c3ccccc3)n2)CC1	1.1	Stable	13 nM	Stable	1800 nM
CCCCCOC(=O)N1CCN(C(=O)[C@H](CCC(=O)O)NC(=O)c2cc(N3CCC(CNCC)CC3)cc(-c3ccccc3)n2)CC1	1.2	Stable	1.5 nM	Stable	950 nM
CCCCCOC(=O)N1CCN(C(=O)[C@H](CCC(=O)O)NC(=O)c2cc(N3CCN(CCC)CC3)cc(-c3ccccc3)n2)CC1	6.3	Stable	29 nM	Stable	5000 nM
CCCCCOC(=O)N1CCN(C(=O)[C@H](CCC(=O)O)NC(=O)c2cc(N3CCC[C@@H](O)C3)cc(-c3ccccc3)n2)CC1	4.9	Stable	16 nM	Stable	4400 nM
CCCCCOC(=O)N1CCN(C(=O)[C@H](CCC(=O)O)NC(=O)c2cc(N3CCCC(C(N)=O)C3)cc(-c3ccccc3)n2)CC1 (stereo not given in full)	7.3	Stable	17 nM	Stable	7800 nM
CCCCCOC(=O)N1CCN(C(=O)[C@H](CCC(=O)O)NC(=O)c2cc(N3CCN(CCN)CC3)cc(-c3ccccc3)n2)CC1	1.6	Stable	4.5 nM	Stable	1100 nM
CCCCCOC(=O)N1CCN(C(=O)[C@H](CCC(=O)O)NC(=O)c2cc(N3CCC(CN4CCCC4)CC3)cc(-c3ccccc3)n2)CC1	0.93	Stable	1.1 nM	Stable	740 nM
CCCCCOC(=O)N1CCN(C(=O)[C@H](CCC(=O)O)NC(=O)c2cc(N3CCN(CCS(C)(=O)=O)CC3)cc(-c3ccccc3)n2)CC1	0.81	Stable	8.9 nM	Stable	680 nM
CCCCCOC(=O)N1CCN(C(=O)[C@H](CCC(=O)O)NC(=O)c2cc(N3CC(O)C3)cc(-c3ccccc3)n2)CC1	9.2	Stable	2.5 nM	Stable	8600 nM
CCCCCOC(=O)N1CCN(C(=O)[C@H](CCC(=O)O)NC(=O)c2cc(N3CC[C@@H](C(=O)N(CC)CC)C3)cc(-c3ccccc3)n2)CC1	5	Stable	2.6 nM	Stable	6600 nM
CCCCOC(=O)N1CCN(C(=O)[C@H](CCC(=O)O)NC(=O)c2cc(N3CCC(CN(CC)CC)CC3)cc(-c3ccccc3)n2)CC1	2.1	Stable	7.5 nM	Stable	2400 nM
CCCCOC(=O)N1CCN(C(=O)[C@H](CCC(=O)O)NC(=O)c2cc(N3CCC(C(=O)NCC)CC3)cc(-c3ccccc3)n2)CC1	0.9	Stable	0.68 nM	Stable	1200 nM
CCCCOC(=O)N1CCN(C(=O)[C@H](CCC(=O)O)NC(=O)c2cc(N3CCC(CN4CCCC4)CC3)cc(-c3ccccc3)n2)CC1	1	Stable	1.5 nM	Stable	800 nM
CCCCCOC(=O)N1CCN(C(=O)[C@H](CCC(=O)O)NC(=O)c2cc(N3CCCC(OC)C3)cc(-c3ccccc3)n2)CC1 (stereo not given in full)	6.3	Stable	31 nM	Stable	5200 nM
CCCCCOC(=O)N1CCN(C(=O)[C@H](CCC(=O)O)NC(=O)c2cc(N3CCC(CCN)CC3)cc(-c3ccccc3)n2)CC1	0.66	Stable	2.8 nM	Stable	860 nM
CCCCCOC(=O)N1CCN(C(=O)C(CCC(=O)O)NC(=O)c2cc(N3CCC(COC)C3)cc(-c3ccccc3)n2)CC1 (mixture of isomers)	10	Stable	31 nM	Stable	7300 nM
CCCCCCOC(=O)N1CCN(C(=O)[C@H](CCC(=O)O)NC(=O)c2cc(N3CCC(C(=O)N(CC)CC)CC3)cc(-c3ccccc3)n2)CC1	1.7	Stable	4.8 nM	Stable	820 nM
CCCCCOC(=O)N1CCN(C(=O)[C@H](CCC(=O)O)NC(=O)c2cc(N3CCCC(C(=O)N(CC)CC)C3)cc(-c3ccccc3)n2)CC1 (stereo not given in full)	4.2	Stable	26 nM	Stable	7700 nM
CCCCCOC(=O)N1CCN(C(=O)[C@H](CCC(=O)O)NC(=O)c2cc(N3CCC(CNC)CC3)cc(-c3ccccc3)n2)CC1	0.99	Stable	1.5 nM	Stable	710 nM
CCCCCOC(=O)N1CCN(C(=O)[C@H](CCC(=O)O)NC(=O)c2cc(N3CCN(CC(=O)N(C)C)CC3)cc(-c3ccccc3)n2)CC1	1.1	Stable	4.9 nM	Stable	690 nM
CCCCCOC(=O)N1CCN(C(=O)[C@H](CCC(=O)O)NC(=O)c2cc(N3CCC(C(=O)NC(C)C)CC3)cc(-c3ccccc3)n2)CC1	0.64	Stable	6 nM	Stable	750 nM

— ChEMBL document CHEMBL1156904, “Part II: piperazinyl-glutamate-pyridines as potent orally bioavailable P2Y12 antagonists for inhibition of platelet aggregation” (Bioorg Med Chem Lett, 2010)
